The supplement of paper PMC10331698
± gives the standard deviation of the averaged measurements.

Legend:
Assay in all cases: level (log10 ratio to DMSO vehicle control); higher = higher biomarker level / cell amount than vehicle control
Conditions in all cases: in DMSO
[1] = compound: OCC(F)(F)C(F)(F)C(F)(F)C(F)(F)C(F)(F)C(F)F [1H,1H,7H-Dodecafluoro-1-heptanol]
Procedure: (§1)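 BioMAP Diversity Plus panel of 12 human primary cell co-culture systems (3C, 4H, LPS, SAg, BT, BF4T, BE3C, CASM3C, HDF3CGF, KF3CT, MyoF, Mphg). Compounds were added 1 h before stimulation and left for 24 h (MyoF 48 h; BT 72 h for soluble read-outs or 6 d for IgG). Biomarkers were read by ELISA, cytotoxicity by SRB, PBMC viability and proliferation by Alamar Blue. Each well value was divided by the mean of 8 DMSO control wells on the same plate and log10 transformed; duplicate blinded samples were tested at 4 concentrations.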

[2] = compound: CNS(=O)(=O)C(F)(F)C(F)(F)C(F)(F)C(F)(F)C(F)(F)C(F)(F)C(F)(F)C(F)(F)F [N-Methylperfluorooctanesulfonamide]
Procedure: as §1

[3] = compound: O=C(O)CCC(F)(F)C(F)(F)C(F)(F)F [3:3 Fluorotelomer carboxylic acid]
Procedure: as §1

[4] = compound: FC(F)(F)C(F)(F)C(F)(F)C(F)(F)C(F)(F)C(F)(F)C(F)(F)CCI [1-Iodo-1H,1H,2H,2H-perfluorononane]
Procedure: as §1

1-(Perfluorohexyl)octane = compound: CCCCCCCCC(F)(F)C(F)(F)C(F)(F)C(F)(F)C(F)(F)C(F)(F)F [1-(Perfluorohexyl)octane]
Procedure: as §1

Perfluorohexanoic acid = compound: O=C(O)C(F)(F)C(F)(F)C(F)(F)C(F)(F)C(F)(F)F [Perfluorohexanoic acid]
Procedure: as §1

[5] = compound: O=S(=O)(O)C(F)(F)C(F)(F)C(F)(F)C(F)(F)C(F)(F)C(F)(F)C(F)(F)C(F)(F)F [Perfluorooctanesulfonic acid]
Procedure: as §1

Test System | level (log10) ([1]; 6700 nM) | level (log10) ([1]; 20000 nM) | level (log10) ([1]; 60000 nM) | level (log10) ([2]; 6700 nM) | level (log10) ([2]; 20000 nM) | level (log10) ([2]; 60000 nM) | level (log10) ([3]; 6700 nM) | level (log10) ([3]; 20000 nM) | level (log10) ([3]; 60000 nM) | level (log10) ([4]; 6700 nM) | level (log10) ([4]; 20000 nM) | level (log10) (1-(Perfluorohexyl)octane; 6700 nM) | level (log10) (1-(Perfluorohexyl)octane; 20000 nM) | level (log10) (Perfluorohexanoic acid; 6700 nM) | level (log10) (Perfluorohexanoic acid; 20000 nM) | level (log10) (Perfluorohexanoic acid; 60000 nM) | level (log10) ([5]; 6700 nM) | level (log10) ([5]; 20000 nM) | level (log10) ([5]; 60000 nM)
3C:CD141/Thrombomodulin | -0.007 ± 0.057 | 0.0065 ± 0.044 | -0.017 ± 0.058 | -0.002 ± 0.0085 | -0.009 ± 0.018 | -0.0345 ± 0.013 | -0.0105 ± 0.011 | -0.018 ± 0.047 | -0.006 ± 0.013 | -0.028 ± 0.0014 | -0.01 ± 0.041 | 0.0125 ± 0.015 | -0.0105 ± 0.018 | -0.0205 ± 0.005 | -0.022 ± 0.027 | -0.006 | -0.0015 ± 0.012 | -0.0025 ± 0.011 | 0.0455 ± 0.022
KF3CT:PAI-I | -0.0075 ± 0.0092 | -0.0035 ± 0.011 | 0 ± 0.0042 | 0.0465 ± 0.0078 | 0.101 ± 0.0071 | 0.0425 ± 0.028 | -0.009 ± 0.031 | -0.0125 ± 0.0021 | -0.004 ± 0.0071 | 0.0115 ± 0.022 | 0.017 ± 0.021 | 0.0165 ± 0.0078 | 0.026 ± 0.011 | -0.0075 ± 0.00071 | -0.0175 ± 0.0035 | -0.0085 ± 0.00071 | -0.0255 ± 0.013 | -0.058 ± 0.02 | -0.135 ± 0.052
CASM3C:Serum Amyloid A | -0.019 ± 0.045 | -0.01 ± 0.031 | -0.0275 ± 0.037 | 0.0135 ± 0.0078 | 0.0445 ± 0.0078 | 0.073 ± 0.041 | -0.0055 ± 0.029 | -0.004 ± 0.0042 | -0.0005 ± 0.032 | -0.007 ± 0.031 | 0.0135 ± 0.076 | -0.02 ± 0.0057 | 0.0055 ± 0.066 | 0.0315 ± 0.012 | -0.003 ± 0.0028 | 0.01 ± 0.047 | 0.0035 ± 0.0021 | -0.017 ± 0.0014 | -0.005 ± 0.04
HDF3CGF:CCL2/MCP-1 | 0.012 ± 0.024 | 0.0105 ± 0.03 | 0.018 ± 0.017 | 0.034 ± 0.0085 | 0.0305 ± 0.0035 | 0.029 ± 0.014 | 0.004 ± 0.013 | 0.0005 ± 0.0035 | 0.015 ± 0.041 | -0.034 ± 0.017 | -0.018 ± 0.016 | -0.0185 ± 0.005 | -0.004 ± 0.013 | -0.0145 ± 0.00071 | -0.009 ± 0.03 | -0.0205 ± 0.04 | -0.005 ± 0.0042 | -0.013 ± 0.0071 | 0.01 ± 0.033
CASM3C:CD141/Thrombomodulin | 0.0095 ± 0.052 | 0.0055 ± 0.0064 | -0.0055 ± 0.047 | 0.0085 ± 0.019 | -0.028 ± 0.057 | -0.002 ± 0.044 | -0.0065 ± 0.005 | -0.0085 ± 0.011 | -0.0185 ± 0.0035 | 0.0135 ± 0.0035 | 0.0065 ± 0.03 | -0.0145 ± 0.00071 | -0.0165 ± 0.03 | 0.021 ± 0.021 | -0.0105 ± 0.021 | 0.0005 ± 0.044 | -0.007 ± 0.0085 | -0.0115 ± 0.0078 | -0.017 ± 0.031
KF3CT:CD54/ICAM-1 | -0.002 ± 0.016 | -0.0115 ± 0.0064 | 0.003 ± 0.017 | 0.031 ± 0.03 | -0.035 ± 0.014 | 0.018 ± 0.0028 | -0.0055 ± 0.0092 | -0.008 ± 0.0014 | 0.001 ± 0.028 | -0.0045 ± 0.0092 | -0.0175 ± 0.025 | 0.0045 ± 0.033 | -0.0065 ± 0.0035 | 0.0055 ± 0.0064 | -0.002 ± 0.013 | -0.007 ± 0.011 | -0.0085 ± 0.0035 | 0.003 ± 0.02 | 0.0115 ± 0.011
lMphg:CD40 | -0.047 ± 0.082 | -0.0425 ± 0.047 | -0.061 ± 0.071 | -0.054 ± 0.042 | -0.0365 ± 0.021 | 0.0255 ± 0.063 | -0.0195 ± 0.064 | -0.028 ± 0.067 | 0.0065 ± 0.018 | -0.0065 ± 0.00071 | -0.0225 ± 0.028 | -0.0185 ± 0.011 | -0.023 ± 0.021 | 0.0105 ± 0.0078 | 0.016 ± 0.02 | -0.008 ± 0.0028 | -0.027 ± 0.013 | -0.0025 ± 0.005 | 0.02 ± 0.0014
HDF3CGF:CXCL10/IP-10 | -0.0015 ± 0.015 | -0.0055 ± 0.0021 | -0.011 ± 0.018 | -0.102 ± 0.064 | -0.099 ± 0.071 | -0.0875 ± 0.022 | -0.0005 ± 0.013 | 0.003 ± 0.0042 | -0.011 ± 0.011 | -0.0265 ± 0.0035 | -0.0645 ± 0.03 | -0.02 ± 0.041 | -0.03 ± 0.055 | -0.0135 ± 0.023 | -0.0215 ± 0.0035 | -0.0235 ± 0.013 | -0.0405 ± 0.036 | -0.113 ± 0.039 | -0.259 ± 0.054
MyoF:Collagen III | -0.0095 ± 0.0035 | -0.012 | -0.015 ± 0.0071 | -0.0185 ± 0.016 | -0.007 ± 0.018 | -0.0175 ± 0.005 | -0.0125 ± 0.005 | -0.005 ± 0.011 | -0.0145 ± 0.0064 | 0.0145 ± 0.0021 | -0.0055 ± 0.03 | 0.019 ± 0.03 | -0.016 ± 0.0014 | 0.0075 ± 0.012 | 0.003 ± 0.02 | 0.0105 ± 0.0092 | -0.0265 ± 0.026 | -0.025 ± 0.0071 | -0.0385 ± 0.012
HDF3CGF:MMP-1 | 0.0115 ± 0.015 | 0.0105 ± 0.0021 | 0.012 ± 0.02 | -0.008 ± 0.016 | -0.005 ± 0.011 | 0.0005 ± 0.013 | 0.0045 ± 0.037 | 0.009 ± 0.017 | 0.0045 ± 0.015 | 0.011 ± 0.017 | 0.061 ± 0.04 | -0.0395 ± 0.012 | -0.014 ± 0.023 | 0.0155 ± 0.036 | 0.0045 ± 0.016 | -0.0145 ± 0.043 | -0.0145 ± 0.0064 | -0.016 ± 0.0014 | 0.0085 ± 0.015
lMphg:SRB | -0.018 ± 0.028 | 0.0015 ± 0.005 | -0.0025 ± 0.00071 | -0.021 ± 0.021 | -0.0155 ± 0.00071 | -0.0265 ± 0.00071 | -0.0305 ± 0.026 | -0.0105 ± 0.021 | -0.013 ± 0.0042 | -0.002 ± 0.0071 | 0.0065 ± 0.005 | 0.002 ± 0.0042 | 0 ± 0.0085 | -0.019 ± 0.0085 | -0.0175 ± 0.0064 | -0.006 ± 0.0085 | -0.002 ± 0.014 | -0.004 ± 0.018 | 0.009 ± 0.02
HDF3CGF:Proliferation 72hr | 0.0045 ± 0.066 | 0 ± 0.072 | 0.003 ± 0.044 | -0.001 ± 0.073 | 0.0205 ± 0.073 | -0.056 ± 0.095 | -0.0095 ± 0.015 | 0.0385 ± 0.0092 | 0.021 ± 0.027 | -0.689 ± 0.0092 | -0.815 ± 0.25 | 0.0085 ± 0.077 | 0.0325 ± 0.005 | 0.04 ± 0.0014 | 0.015 ± 0.034 | 0.0305 ± 0.037 | 0.141 ± 0.05 | 0.15 ± 0.048 | -0.544 ± 0.18
lMphg:CD106/VCAM-1 | -0.0115 ± 0.042 | -0.015 ± 0.037 | -0.027 ± 0.047 | 0.015 ± 0.014 | 0.0515 ± 0.0092 | 0.0645 ± 0.026 | 0.002 ± 0.013 | 0.009 ± 0.0014 | 0.0045 ± 0.013 | -0.009 ± 0.04 | -0.039 ± 0.075 | -0.0105 ± 0.012 | -0.035 ± 0.017 | 0.0065 ± 0.016 | -0.0055 ± 0.011 | 0.0005 ± 0.018 | -0.009 ± 0.0099 | -0.005 ± 0.013 | -0.058 ± 0.04
KF3CT:MMP-9 | 0.0075 ± 0.005 | -0.003 ± 0.011 | 0.011 ± 0.0014 | 0.0055 ± 0.005 | -0.0495 ± 0.0035 | -0.098 ± 0.027 | 0.001 ± 0.0028 | -0.001 ± 0.0042 | 0.003 ± 0.0042 | -0.006 ± 0.0042 | 0.0165 ± 0.013 | -0.006 ± 0.024 | 0.0075 ± 0.029 | -0.009 ± 0.014 | -0.0055 ± 0.0035 | 0.017 ± 0.016 | -0.0195 ± 0.013 | -0.013 | -0.0705 ± 0.015
3C:CD62E/E-Selectin | -0.0135 ± 0.025 | -0.007 ± 0.0042 | 0.0205 ± 0.025 | -0.011 ± 0.025 | 0.01 ± 0.023 | -0.072 ± 0.011 | -0.006 ± 0.0042 | 0.001 ± 0.013 | 0.006 ± 0.0071 | -0.0135 ± 0.0035 | -0.028 ± 0.014 | -0.0065 ± 0.011 | -0.02 ± 0.0071 | -0.0065 ± 0.0092 | -0.007 ± 0.011 | 0.0145 ± 0.029 | 0.004 ± 0.0042 | 0.0175 ± 0.018 | 0.0695 ± 0.011
